Results reported in PubChem BioAssay (NCI).
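Each compound was tested at five concentrations against cells in 96-well plates for 48 hours. TGI is the concentration that stops growth completely.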

Tests used:
Assay in all cases: NCI-60 cell line screen, 48 h
TK-10 renal = test system: TK-10 renal
SF-268 CNS = test system: SF-268 CNS
MALME-3M melanoma = test system: MALME-3M melanoma
RXF 393 renal = test system: RXF 393 renal
SK-OV-3 ovarian = test system: SK-OV-3 ovarian
CAKI-1 renal = test system: CAKI-1 renal
SNB-19 CNS = test system: SNB-19 CNS
NCI-H23 lung = test system: NCI-H23 lung
MCF7 breast = test system: MCF7 breast
MDA-MB-231 breast = test system: MDA-MB-231 breast
MDA-MB-435 = test system: MDA-MB-435
T-47D breast = test system: T-47D breast

SMILES | TGI (TK-10 renal) [µM] | TGI (SF-268 CNS) [µM] | TGI (MALME-3M melanoma) [µM] | TGI (RXF 393 renal) [µM] | TGI (SK-OV-3 ovarian) [µM] | TGI (CAKI-1 renal) [µM] | TGI (SNB-19 CNS) [µM] | TGI (NCI-H23 lung) [µM] | TGI (MCF7 breast) [µM] | TGI (MDA-MB-231 breast) [µM] | TGI (MDA-MB-435) [µM] | TGI (T-47D breast) [µM]
COc1ccc2nc3cc(Cl)ccc3c(Sc3ccc(NC(C)=O)cc3)c2c1 | > 51.1 | > 40 | > 51.8 | > 27.9 | > 61.9 | > 50.6 | > 26.4 | > 33.5 | – | – | – | –
COc1cc(Nc2nc3cc(C(F)(F)F)ccc3nc2C(=O)O)cc(OC)c1OC | > 100 | > 100 | > 100 | 70.2 | – | 99 | > 100 | > 100 | > 100 | 70.3 | > 100 | > 100
CCOc1cc(NC(C)=O)ccc1C(=O)NNS(=O)(=O)c1ccc(NC(C)=O)cc1 | – | > 100 | > 100 | > 100 | > 100 | > 100 | > 100 | > 100 | > 100 | – | > 100 | > 100
COc1cccc(-c2nc(-c3cnccn3)n(C/C=C/c3ccccc3)n2)c1 | > 10 | > 10 | > 10 | – | – | – | > 10 | > 10 | > 10 | – | > 10 | –
CC1(C)O[C@H]2OC(CO)C(N=[N+]=[N-])[C@H]2O1 (stereo partly specified) | > 100 | > 100 | > 100 | – | – | > 100 | > 100 | > 100 | > 100 | > 100 | > 100 | > 100
Nc1c(S(=O)(=O)c2ccccc2)c2nc3ccccc3nc2n2c1nc1ccccc12 | > 100 | > 72.9 | > 80.9 | > 100 | > 100 | > 100 | > 93.2 | > 50 | – | – | – | –
C=C1CC[C@H]2C(=O)OC(c3ccoc3)C[C@]2(C)C/C=C\C=C/1C(=O)OC (stereo partly specified) | > 25 | – | > 25 | > 25 | > 25 | > 25 | > 25 | > 25 | > 25 | > 25 | – | –
O=C1OCC2OC(=O)c3cc(O)c(O)c(O)c3-c3c(O)c(O)c(O)c4c3C(=O)OC(C2OC(=O)c2cc(O)c(O)c(O)c2-c2c1cc(O)c(O)c2O)C1OC(=O)C2C4=C(O)C(=O)C23Oc2cc(O)c4c(c2[C@H]13)O[C@H](c1ccc(O)c(O)c1)[C@@H](O)C4 (stereo partly specified) | – | 50.7 | 72.2 | 34.9 | > 100 | 30.7 | > 100 | 47.3 | 46.3 | 43.5 | 45 | 74.8
COC(=O)[C@@H](NC(=O)N(Cc1ccccc1)C[C@H](CC(C)C)NC(=O)[C@@H](NC(=O)OC(C)(C)C)C(C)C)C(C)C | > 100 | > 100 | > 100 | > 100 | > 100 | > 100 | > 100 | > 100 | – | > 100 | > 100 | > 100
NC1(CCNC(=O)c2ccccc2)CCN(C(=O)c2ccccc2)CC1 | > 100 | > 100 | > 100 | > 100 | > 100 | > 100 | > 100 | > 100 | > 100 | – | > 100 | > 100
COC(=O)N[C@H](C(=O)NC(OCc1ccccc1)C1COC(C)(C)O1)C(C)O[Si](C)(C)C(C)(C)C (stereo partly specified) | > 100 | > 100 | > 100 | > 100 | > 100 | > 100 | > 100 | > 100 | > 100 | – | – | > 100
